Laboratory results reported in EP4775570A1, “CYP11A1 INHIBITOR, PREPARATION METHOD THEREFOR AND USE THEREOF” (Shenzhen Zhongge Biological Technology Co., Ltd., priority 2023, dated 2025).

target: T1, CYP11A1 (Homo sapiens, UniProt P05108); assay: NCI-H295R cellular pregnenolone biosynthesis inhibition assay (ELISA method); format: cell-based; details: NCI-H295R cells, 3 days incubation, pregnenolone in cell supernatant by ELISA; read-out: IC50
T1 construct: host or cells: NCI-H295R
T1 sequence (P05108 40-521): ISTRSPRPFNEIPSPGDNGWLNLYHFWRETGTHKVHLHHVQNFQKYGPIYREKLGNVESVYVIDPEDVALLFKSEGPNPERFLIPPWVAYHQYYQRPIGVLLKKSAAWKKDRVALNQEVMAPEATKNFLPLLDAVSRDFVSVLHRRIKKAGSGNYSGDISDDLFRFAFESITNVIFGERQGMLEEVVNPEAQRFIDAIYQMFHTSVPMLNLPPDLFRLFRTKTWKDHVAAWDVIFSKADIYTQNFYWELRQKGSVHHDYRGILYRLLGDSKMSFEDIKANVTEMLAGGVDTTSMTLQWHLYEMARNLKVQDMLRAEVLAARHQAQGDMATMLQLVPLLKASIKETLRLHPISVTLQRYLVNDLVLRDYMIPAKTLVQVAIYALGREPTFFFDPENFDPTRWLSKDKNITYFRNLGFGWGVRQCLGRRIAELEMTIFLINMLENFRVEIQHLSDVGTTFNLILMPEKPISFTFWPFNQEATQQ
Experimental: The experiment aims to test the inhibitory effect of the compounds of the present disclosure on cellular pregnenolone biosynthesis, and to assess the inhibitory effect of the compounds on CYP11A1 target based on their IC50 values.
NCI-H295R cells (MINGZHOUBIO, MZ-2138) cultured in NCI-H295R complete medium (MINGZHOUBIO, MCM-0399).
Using culture medium, NCI-H295R cells were seeded into a new 384-well cell culture plate (Greiner, 781091) at a density of 5,000 cells per well, with 45µL of cell suspension per well. The test compounds were prepared by adding 5µL of compound solution at 10× concentration to each well, to a maximum final concentration of 10µM, followed by 3× serial dilution for 10 points, with a final DMSO concentration of 0.1%, centrifuging at 1,000 rpm for 1 minute at room temperature, and then incubating in a 5% CO2 cell incubator at 37°C for 3 days.
Pregnenolone ELISA kit (Abnova, KA1912) was used for detecting the content of pregnenolone in the supernatant of cell culture. Before detection, the reagents were allowed to come back to room temperature for 1 hour. After taking out the 384-well plate, the cellular supernatant was pipetted and subjected to 5× dilution with the Assay Buffer provided in the kit. A working solution of competitive molecule and a washing solution in accordance with the instructions was prepared. 50µL of diluted cellular supernatant were pipetted into the 96-well plate provided in the ELISA kit, added with 100µL of working solution of competitive molecule per well and the plate was incubated at room temperature for 1.5 hours. After discarding the liquid, the plate was washed with 300µL of washing solution per well three times and dried. After adding 150 µL of substrate chromogenic solution per well, the plate was incubated at room temperature for 10-15 minutes. After adding 50 µL of termination solution per well, the plate was incubated at room temperature for 10-15 minutes and read for absorbance at 450nm with Envision HTS Multilabel Reader.
The wells added with 1µM ODM-208 were defined as 100% inhibition (positive control), the wells containing DMSO at a final concentration of 0.1% were defined as 0% inhibition (negative control), and inhibitory ratio = (absorbance of tested sample - average absorbance of negative control)/(average absorbance of positive control - average absorbance of negative control)*100%. The data were subjected to four-parameter fitting using GraphPad Prism to calculate the IC50 values of the compounds.

First: CS(=O)(=O)N1CCC(COc2ccc(CN3Cc4ccccc4C3)cc2-c2ccco2)CC1 [compound 36]
Second: CS(=O)(=O)N1CCC(COc2ccc(CN3Cc4ccccc4C3)cc2-c2ncco2)CC1 [compound 37]
The IC50 of the first is higher: over 300 nM for the first, 100 to 300 nM for the second. The second is the more potent here.

Compared with `CS(=O)(=O)N1CCC(COc2ccc(CN3Cc4ccccc4C3)cc2-c2nccs2)CC1` [compound 38], `CCOc1cc(CN2Cc3ccccc3C2)ccc1CCC1CCN(S(C)(=O)=O)CC1` [compound 73] is lower in IC50: over 300 nM for the first, 100 to 300 nM for the second. The second is the more potent here.

`CS(=O)(=O)N1CCC(CCc2ccc(CN3Cc4ccccc4C3)cc2F)CC1` [compound 40] and `CS(=O)(=O)N1CCC(CCc2ccc(CN3Cc4ccccc4C3)cc2Cl)CC1` [compound 84] cannot be ordered by IC50: under 100 nM for the first, under 100 nM for the second.

First: COc1cc(CN2Cc3ccccc3C2)c(F)cc1CCC1CCN(S(C)(=O)=O)CC1 [compound 41]
Second: CS(=O)(=O)N1CCC(CCc2cc(F)c(CN3Cc4ccccc4C3)cc2C#N)CC1 [compound 59]
The IC50 of the first is higher: 100 to 300 nM for the first, under 100 nM for the second.

Compared with `COc1cc(CN2Cc3ccccc3C2)ccc1COC1CCN(S(C)(=O)=O)CC1` [compound 42], `COc1cc(CN2Cc3ccccc3C2)ccc1/C=C/C1CCN(S(C)(=O)=O)CC1` [compound 44] is lower in IC50: over 300 nM for the first, under 100 nM for the second.

Compared with `CS(=O)(=O)N1CCC(CSc2ccc(CN3Cc4ccccc4C3)cc2F)CC1` [compound 43], `CC(C)c1cc(CN2Cc3ccccc3C2)ccc1CCC1CCN(S(C)(=O)=O)CC1` [compound 74] is lower in IC50: 100 to 300 nM for the first, under 100 nM for the second.

First: COc1cc(CN2Cc3ccccc3C2)ccc1Oc1cccc2c1CCN(S(C)(=O)=O)C2 [compound 45]
Second: COc1cc(CN2Cc3ccccc3C2)ccc1CCN1CCN(S(C)(=O)=O)CC1 [compound 48]
The IC50 of the first is higher: over 300 nM for the first, 100 to 300 nM for the second.

Going from `CC(C)(C)OC(=O)N1CCC(COc2cc(F)c(CN3Cc4ccccc4C3)cc2Br)CC1` [compound 46] to `OCCN1CCC(COc2cc(F)c(CN3Cc4ccccc4C3)cc2Br)CC1` [compound 55], the IC50 rises from under 100 nM to over 300 nM. The first is the more potent here.

Compared with `CC(=O)N1CCN(c2cccc(Oc3ccc(CN4Cc5ccccc5C4)cc3F)c2)CC1` [compound 47], `CC(=O)N1CCC(CCSc2ccc(CN3Cc4ccccc4C3)cc2F)CC1` [compound 49] is lower in IC50: over 300 nM for the first, under 100 nM for the second.

First: COc1cc(CN2Cc3ccccc3C2)ccc1C=CC1CCN(C(=O)OC(C)(C)C)CC1 [compound 50]
Second: Cn1c(CN2Cc3ccccc3C2)c(F)cc(C=CC2CCN(C(=O)OC(C)(C)C)CC2)c1=O [compound 103]
The IC50 of the first is lower: under 100 nM for the first, 100 to 300 nM for the second. The first is the more potent here.

`CC(C)(C)OC(=O)N1CCC2(CCN(c3ccc(CN4Cc5ccccc5C4)cc3F)CC2)C1` [compound 51] and `CS(=O)(=O)N1CCC2(CCN(c3ccc(CN4Cc5ccccc5C4)cc3F)CC2)C1` [compound 58] cannot be ordered by IC50: over 300 nM for the first, over 300 nM for the second.

First: CS(=O)(=O)N1CCC(COc2cc(F)c(CN3Cc4ccccc4C3)cc2O)CC1 [compound 52]
Second: CS(=O)(=O)N1CCC(C=Cc2cc(F)c(CN3Cc4ccccc4C3)cc2C#N)CC1 [compound 61]
The IC50 of the first is lower: under 100 nM for the first, 100 to 300 nM for the second.

First: CS(=O)(=O)N1CCC(CCc2ccc(CN3Cc4ccccc4C3)cc2C#N)CC1 [compound 54]
Second: CC(C)Oc1cc(CN2Cc3ccccc3C2)ccc1CCC1CCN(S(C)(=O)=O)CC1 [compound 76]
The IC50 of the first is lower: under 100 nM for the first, 100 to 300 nM for the second. The first is the more potent here.

`Fc1cc(OCC2CCNCC2)c(Br)cc1CN1Cc2ccccc2C1` [compound 56] and `COc1cc(CN2Cc3ccccc3C2)ccc1CCC1CCS(=O)(=O)CC1` [compound 88] cannot be ordered by IC50: over 300 nM for the first, over 300 nM for the second.

`CS(=O)(=O)N1CCC(CN2CCOc3cc(CN4Cc5ccccc5C4)ccc32)CC1` [compound 57] and `CS(=O)(=O)N1CCC(CCc2ccc(CN3Cc4ccccc4C3)o2)CC1` [compound 83] cannot be ordered by IC50: over 300 nM for the first, over 300 nM for the second.

First: CS(=O)(=O)N1CCC(C=Cc2ccc(CN3Cc4ccccc4C3)cc2C#N)CC1 [compound 60]
Second: CS(=O)(=O)N1CCC(CCc2sc(CN3Cc4ccccc4C3)cc2C#N)CC1 [compound 96]
The IC50 of the first is lower: under 100 nM for the first, over 300 nM for the second. The first is the more potent here.

Compared with `COc1cc(CN2Cc3cccnc3C2)ccc1CCC1CCN(S(C)(=O)=O)CC1` [compound 62], `COc1cc(CN2Cc3ccncc3C2)ccc1CCC1CCN(S(C)(=O)=O)CC1` [compound 63] is lower in IC50: 100 to 300 nM for the first, under 100 nM for the second. The second is the more potent here.

`COc1c(CCC2CCN(S(C)(=O)=O)CC2)cc(F)c(CN2Cc3ccccc3C2)c1F` [compound 64] and `COc1c(CCC2CCN(S(C)(=O)=O)CC2)ccc(CN2Cc3ccccc3C2)c1F` [compound 85] cannot be ordered by IC50: under 100 nM for the first, under 100 nM for the second.

`COc1nc(CN2Cc3ccccc3C2)ccc1CCC1CCN(S(C)(=O)=O)CC1` [compound 65] and `COc1nc(CN2Cc3ccccc3C2)c(F)cc1CCC1CCN(S(C)(=O)=O)CC1` [compound 89] fall in the same range of IC50: 100 to 300 nM for the first, 100 to 300 nM for the second.

First: COc1cc(CN2Cc3cccc(F)c3C2)c(F)cc1CCC1CCN(S(C)(=O)=O)CC1 [compound 66]
Second: Cn1c(CN2Cc3cccc(F)c3C2)c(F)cc(CCC2CCN(S(C)(=O)=O)CC2)c1=O [compound 100]
The IC50 of the first is lower: under 100 nM for the first, over 300 nM for the second. The first is the more potent here.

Compared with `CCS(=O)(=O)N1CCC(CCc2ccc(CN3Cc4ccccc4C3)cc2OC)CC1` [compound 67], `C=CS(=O)(=O)N1CCC(CCc2ccc(CN3Cc4ccccc4C3)cc2OC)CC1` [compound 82] is higher in IC50: under 100 nM for the first, 100 to 300 nM for the second. The first is the more potent here.

`COc1cc(CN2Cc3ccccc3C2)ccc1CCC1CCN(C(=O)CC#N)CC1` [compound 68] and `COc1cc(CN2Cc3ccccc3C2)ccc1CCC1CCN(C(C)=O)CC1` [compound 70] cannot be ordered by IC50: under 100 nM for the first, under 100 nM for the second.

First: COc1cc(CN2Cc3ccccc3C2)ccc1CCC1CCN(S(=O)(=O)C2CC2)CC1 [compound 69]
Second: COc1cc(CN2Cc3ccccc3C2)ccc1CCC1CCN(S(=O)(=O)C(F)(F)F)CC1 [compound 77]
The IC50 of the first is lower: under 100 nM for the first, 100 to 300 nM for the second. The first is the more potent here.

Compared with `COc1cc(CN2Cc3ccccc3C2)ccc1CCC1CCN(C(=O)C(F)(F)F)CC1` [compound 71], `COc1cc(CN2Cc3ccccc3C2)ccc1CCC1CCN(C(=O)C(C)(C)C)CC1` [compound 81] is lower in IC50: 100 to 300 nM for the first, under 100 nM for the second. The second is the more potent here.

`COc1cc(CN2Cc3ccccc3C2)ccc1CCC1CCN(S(=O)(=O)c2ccc(C)cc2)CC1` [compound 75] and `COc1cc(CN2Cc3ccccc3C2)ccc1CCC1CCN(S(=O)(=O)c2cccs2)CC1` [compound 78] cannot be ordered by IC50: under 100 nM for the first, under 100 nM for the second.

`CNC(=O)N1CCC(CCc2ccc(CN3Cc4ccccc4C3)cc2OC)CC1` [compound 79] and `COC(=O)N1CCC(CCc2ccc(CN3Cc4ccccc4C3)cc2OC)CC1` [compound 80] cannot be ordered by IC50: under 100 nM for the first, under 100 nM for the second.

Compared with `CS(=O)(=O)N1CCC(CCc2ncc(CN3Cc4ccccc4C3)s2)CC1` [compound 86], `CS(=O)(=O)N1CCC(CCc2cnc(CN3Cc4ccccc4C3)s2)CC1` [compound 87] is higher in IC50: 100 to 300 nM for the first, over 300 nM for the second. The first is the more potent here.

First: Cn1c(CN2Cc3ccccc3C2)ccc(CCC2CCN(S(C)(=O)=O)CC2)c1=O [compound 90]
Second: CS(=O)(=O)N1CCC(CCc2cc(F)c(CN3Cc4ccccc4C3)[nH]c2=O)CC1 [compound 94]
The IC50 of the first is lower: under 100 nM for the first, 100 to 300 nM for the second. The first is the more potent here.

`Cn1c(CN2Cc3ccccc3C2)c(F)cc(CCC2CCCN(S(C)(=O)=O)C2)c1=O` (centres unmarked) [compound 91] and `Cn1c(CN2Cc3ccc(F)cc3C2)c(F)cc(CCC2CCN(S(C)(=O)=O)CC2)c1=O` [compound 101] cannot be ordered by IC50: over 300 nM for the first, over 300 nM for the second.

`COc1cc(CN2Cc3ccccc3C2)ccc1CCC1(O)CCN(S(C)(=O)=O)CC1` [compound 92] and `COc1cc(CN2Cc3ccccc3C2)ccc1C#CC1(O)CCN(S(C)(=O)=O)CC1` [compound 93] fall in the same range of IC50: 100 to 300 nM for the first, 100 to 300 nM for the second.

Going from `CS(=O)(=O)N1CCC(CCc2sc(CN3Cc4ccccc4C3)cc2Br)CC1` [compound 95] to `CC(c1c(F)cc(CCC2CCN(S(C)(=O)=O)CC2)c(=O)n1C)N1Cc2ccccc2C1` (centres unmarked) [compound 102], the IC50 falls from over 300 nM to under 100 nM. The second is the more potent here.

`COc1cc(CN2Cc3ccccc3C2)ccc1C#CC1=CCS(=O)(=O)CC1` [compound 97] and `Cn1c(CN2Cc3ccncc3C2)c(F)cc(CCC2CCN(S(C)(=O)=O)CC2)c1=O` [compound 99] cannot be ordered by IC50: over 300 nM for the first, over 300 nM for the second.

Compound `Cn1c(CN2Cc3cccnc3C2)c(F)cc(CCC2CCN(S(C)(=O)=O)CC2)c1=O` [compound 98] has an IC50 of 100 to 300 nM.
